In patent US20110039762A1, “TARGETED ANTIMICROBIAL MOIETIES” (C3 JIAN, INC., priority 2009, published 2011):
Entries after “also recorded” stand apart in the source; their conditions may differ.

What was measured:
E. coli = experiment: Kill or inhibit growth/proliferation; morphology, biofilm and growth disruption (Tables 5, 6); assay type: cell-based, Escherichia coli; set-up: key: A: Peptide aggregates; B: Less hyphal formation; Clumps; Diffuse clumps and small polyps; F: Diffuse growth; H: Thin; I: Growth inhibition; Microcolony formation; Rippled; Small polyps; Thick; W: Halo formation on top, microlonies on bottom; also: test concentration or dose not given here
E. faecalis = experiment: as above; assay type: cell-based, Enterococcus faecalis; set-up: key: A: Peptide aggregates; B: Less hyphal formation; Clumps; Diffuse clumps and small polyps; F: Diffuse growth; H: Thin; I: Growth inhibition; Microcolony formation; Rippled; Small polyps; Thick; W: Halo formation on top, microlonies on bottom; also: test concentration or dose not given here
S. pneumoniae = experiment: as above; assay type: cell-based, Streptococcus pneumoniae; set-up: key: A: Peptide aggregates; B: Less hyphal formation; Clumps; Diffuse clumps and small polyps; F: Diffuse growth; H: Thin; I: Growth inhibition; Microcolony formation; Rippled; Small polyps; Thick; W: Halo formation on top, microlonies on bottom; also: test concentration or dose not given here
S. epidermidis = experiment: as above; assay type: cell-based, Staphylococcus epidermidis; set-up: key: A: Peptide aggregates; B: Less hyphal formation; Clumps; Diffuse clumps and small polyps; F: Diffuse growth; H: Thin; I: Growth inhibition; Microcolony formation; Rippled; Small polyps; Thick; W: Halo formation on top, microlonies on bottom
MRSA = experiment: as above; assay type: cell-based, Methicillin-resistant Staphylococcus aureus; set-up: key: A: Peptide aggregates; B: Less hyphal formation; Clumps; Diffuse clumps and small polyps; F: Diffuse growth; H: Thin; I: Growth inhibition; Microcolony formation; Rippled; Small polyps; Thick; W: Halo formation on top, microlonies on bottom; also: test concentration or dose not given here
M. luteus = experiment: as above; assay type: cell-based, Micrococcus luteus; set-up: key: A: Peptide aggregates; B: Less hyphal formation; Clumps; Diffuse clumps and small polyps; F: Diffuse growth; H: Thin; I: Growth inhibition; Microcolony formation; Rippled; Small polyps; Thick; W: Halo formation on top, microlonies on bottom
microorganisms = experiment: Peptides having multiple activities (targeting/binding, antimicrobial, growth or phenotype altering)
Excerpt: In certain embodiments, peptides described herein can have multiple activities. Thus for example, a peptide can have both binding/targeting activity and antimicrobial activity. Such peptides can be used, e.g., in a chimeric construct, for any or all of these properties. Thus, for example, a peptide designated “B” in Table 8 can be used as a targeting peptide. If it is also designated G or M it can also be used for antimicrobial activity.

[1] = test system: microorganisms (e.g., bacteria, yeasts, fungi); experiment: Targeting peptide binding to target microorganisms (Table 3); conditions: microorganism(s) the targeting peptide binds, preferably 1x PBS
[2] = binding in aqueous buffers depending on peptide solubility
[3] = peptide binding conducted in aqueous buffers varied by peptide solubility
For Organism, effect in this document: test concentration or dose not given here.

With KTPNDKIHKTIIIKHIIL [PF-533] the “Organism, effect” value (E. coli) was “E. coli (R)”, the “Organism, effect” value (E. faecalis) was “E. faecalis (C)” and the “Organism, effect” value (S. pneumoniae) was “S. pneumoniae (C)”. For the same substance, the “Organism, effect” value (S. epidermidis) was “S. epidermidis (H)” and the “Organism, effect” value (MRSA) was “MRSA (H)”.
For “PF-212: peptide having multiple activities (NDSKASN; Peptide with targeting and/or antimicrobial activity)”, the “Organism, effect” value (M. luteus) was “M. luteus (M)”, the Activities (microorganisms) was “G B” and the “Target(s)” value [1, 2] was “M. luteus; also recorded: P. aeruginosa”.
“PF-215: peptide having multiple activities (ELKITNYNVNTVLYRYYKWGNDLCE; Peptide with targeting and/or antimicrobial activity)” was tested, and the “Organism, effect” value (M. luteus) was “M. luteus (T)”, the Activities (microorganisms) was “G B” and the “Target(s)” value [1, 2] was “S. epidermidis; also recorded: M. luteus; also recorded: P. aeruginosa; also recorded: A. baumannii”.
For “PF-224: peptide having multiple activities (DYFYITLSQKNTF; Peptide with targeting and/or antimicrobial activity)”, the “Organism, effect” value (M. luteus) was “M. luteus (T)”, the Activities (microorganisms) was “G B” and the “Target(s)” value [1, 2] was “S. epidermidis; also recorded: P. aeruginosa; also recorded: A. baumannii”.
In the case of “PF-234: peptide having multiple activities (RTPYILRS; Peptide with targeting and/or antimicrobial activity)”, the “Organism, effect” value (M. luteus) is reported as “M. luteus (T)”, the Activities (microorganisms) is reported as “G B” and the “Target(s)” value [1, 2] is reported as “S. epidermidis; also recorded: M. luteus”.
With “PF-235: peptide having multiple activities (GIPFSKPHKRQVNYMKSDVLAYIEQNKMAHTA; Peptide with targeting and/or antimicrobial activity)” the “Organism, effect” value (M. luteus) was “M. luteus (T)”, the Activities (microorganisms) was “G B” and the “Target(s)” value [1, 2] was “S. epidermidis; also recorded: M. luteus”.
“PF-249: peptide having multiple activities (INSRYKISF; Peptide with targeting and/or antimicrobial activity)” was tested, and the “Organism, effect” value (M. luteus) was “M. luteus (R)”, the Activities (microorganisms) was “G B” and the “Target(s)” value [1, 2] was “S. epidermidis; also recorded: M. luteus”.
“PF-250 (SEDIFGRLANEKANGLEELRKIRLKQ; Peptide with targeting and/or antimicrobial activity)” was tested, and the “Organism, effect” value (M. luteus) was “M. luteus (T)”.
For “PF-255: peptide having multiple activities (DHKINESQHNPFRSDSNKQNVDFF; Peptide with targeting and/or antimicrobial activity)”, the “Organism, effect” value (M. luteus) was “M. luteus (M)”, the Activities (microorganisms) was “G B” and the “Target(s)” value [1, 2] was “P. aeruginosa”.
With “PF-264 (MQSLSNRQSLIASYILMGIFLSFGYPPASLSKFFCRLSHL; Peptide with targeting and/or antimicrobial activity)” the “Organism, effect” value (M. luteus) was “M. luteus (H)”.
With “PF-270: peptide having multiple activities (MYLTPYAWIAVGSIFAFSVTTIKIGDQNDEKQKSHKNDVHKR; Peptide with targeting and/or antimicrobial activity)” the “Organism, effect” value (M. luteus) was “M. luteus (H)”, the Activities (microorganisms) was “G B” and the “Target(s)” value [1, 2] was “S. epidermidis; also recorded: M. luteus; also recorded: P. aeruginosa”.
For “PF-271: peptide having multiple activities (AAQPQTTSP; Peptide with targeting and/or antimicrobial activity)”, the “Organism, effect” value (M. luteus) was “M. luteus (T)”, the Activities (microorganisms) was “G B” and the “Target(s)” value [1, 2] was “S. epidermidis; also recorded: M. luteus; also recorded: P. aeruginosa; also recorded: A. baumannii”.
For “PF-274 (SIQEAEKIIKNDPFYIHDVADYDFMWFEPSKSLEEIKEFV; Peptide with targeting and/or antimicrobial activity)”, the “Organism, effect” value (M. luteus) was “M. luteus (M)”.
With “PF-401: peptide having multiple activities (YWLSRVTTGHSFAFEKPVPLSLTIK; Peptide with targeting and/or antimicrobial activity)” the “Organism, effect” value (E. coli) was “E. coli (R)”, the “Organism, effect” value (E. faecalis) was “E. faecalis (C)” and the “Organism, effect” value (S. epidermidis) was “S. epidermidis (C)”. For the same substance, the Activities (microorganisms) was “G B”, the “Target(s)” value [1, 3] was “S. epidermidis and E. coli and P. aeruginosa and MRSA and E. faecalis and C. jejuni” and the “Organism, effect” value (MRSA) was “MRSA (C)”.
“PF-439: peptide having multiple activities (chain 1 RVLVLKKFHGIMDGNRNVAVFFVGQ; chain 2 RVLVLKKFHGIMDGNRNVAVFFVGQ; Peptide with targeting and/or antimicrobial activity)” was tested, and the “Organism, effect” value (E. coli) was “E. coli (R)”, the “Organism, effect” value (E. faecalis) was “E. faecalis (C)” and the “Organism, effect” value (S. pneumoniae) was “S. pneumoniae (R)”. For the same substance, the “Organism, effect” value (S. epidermidis) was “S. epidermidis (C)”, the Activities (microorganisms) was “G B” and the “Organism, effect” value (MRSA) was “MRSA (M)”.
“PF-440: peptide having multiple activities (chain 1 MFIISPDLFNIAVILYILFFIHDILLLILS; chain 2 MFIISPDLFNIAVILYILFFIHDILLLILS; Peptide with targeting and/or antimicrobial activity)” was tested, and the “Organism, effect” value (E. coli) was “E. coli (R)”, the “Organism, effect” value (E. faecalis) was “E. faecalis (C)” and the “Organism, effect” value (S. pneumoniae) was “S. pneumoniae (R)”. For the same substance, the “Organism, effect” value (S. epidermidis) was “S. epidermidis (C)”, the Activities (microorganisms) was “G B” and the “Organism, effect” value (MRSA) was “MRSA (C)”.
In the case of “PF-444: peptide having multiple activities (chain 1 MAAKLWEEGKMVYASSASMTKRLKLAMSKV; chain 2 MAAKLWEEGKMVYASSASMTKRLKLAMSKV; Peptide with targeting and/or antimicrobial activity)”, the “Organism, effect” value (E. coli) is reported as “E. coli (R)”, the “Organism, effect” value (E. faecalis) is reported as “E. faecalis (C)” and the “Organism, effect” value (S. pneumoniae) is reported as “S. pneumoniae (R)”. For the same substance, the “Organism, effect” value (S. epidermidis) was “S. epidermidis (C)”, the Activities (microorganisms) was “G B” and the “Target(s)” value [1, 3] was “M. luteus; also recorded: C. albicans; also recorded: S. pneumoniae; also recorded: C. jeikeium”. The “Organism, effect” value (MRSA) was “MRSA (C)”.
For “PF-451: peptide having multiple activities (chain 1 MVNYIIGSYMLYREQNNNEALRKFDITLAM; chain 2 MVNYIIGSYMLYREQNNNEALRKFDITLAM; Peptide with targeting and/or antimicrobial activity)”, the “Organism, effect” value (E. coli) was “E. coli (R)”, the “Organism, effect” value (E. faecalis) was “E. faecalis (C)” and the “Organism, effect” value (S. pneumoniae) was “S. pneumoniae (C)”. For the same substance, the “Organism, effect” value (S. epidermidis) was “S. epidermidis (C)”, the Activities (microorganisms) was “G B” and the “Organism, effect” value (MRSA) was “MRSA (C)”.
In the case of “PF-452: peptide having multiple activities (chain 1 MNNWIKVAQISVTVINEVIDIMKEKQNGGK; chain 2 MNNWIKVAQISVTVINEVIDIMKEKQNGGK; Peptide with targeting and/or antimicrobial activity)”, the “Organism, effect” value (E. coli) is reported as “E. coli (C)”, the “Organism, effect” value (E. faecalis) is reported as “E. faecalis (C)” and the “Organism, effect” value (S. pneumoniae) is reported as “S. pneumoniae (R)”. For the same substance, the “Organism, effect” value (S. epidermidis) was “S. epidermidis (C)”, the Activities (microorganisms) was “G B” and the “Target(s)” value [1, 3] was “M. luteus; also recorded: P. aeruginosa; also recorded: C. albicans; also recorded: S. pneumoniae; also recorded: E. faecalis; also recorded: C. jeikeium; also recorded: M. smegmatis”. The “Organism, effect” value (MRSA) was “MRSA (C)”.
In the case of “PF-460: peptide having multiple activities (chain 1 MEHVLPFQNTPPNIVIIYKDFTHLKSITFS; chain 2 MEHVLPFQNTPPNIVIIYKDFTHLKSITFS; Peptide with targeting and/or antimicrobial activity)”, the “Organism, effect” value (E. coli) is reported as “E. coli (H)”, the “Organism, effect” value (E. faecalis) is reported as “E. faecalis (C)” and the “Organism, effect” value (S. pneumoniae) is reported as “S. pneumoniae (R)”. For the same substance, the “Organism, effect” value (S. epidermidis) was “S. epidermidis (C)”, the Activities (microorganisms) was “G B” and the “Organism, effect” value (MRSA) was “MRSA (C)”.
“PF-518: peptide having multiple activities (chain 1 SFYSKYSRYIDNLAGAIFLFF; chain 2 SFYSKYSRYIDNLAGAIFLFF; Peptide with targeting and/or antimicrobial activity)” was tested, and the “Organism, effect” value (E. coli) was “E. coli (R)”, the “Organism, effect” value (E. faecalis) was “E. faecalis (C)” and the “Organism, effect” value (S. pneumoniae) was “S. pneumoniae (M)”. For the same substance, the “Organism, effect” value (S. epidermidis) was “S. epidermidis (C)”, the Activities (microorganisms) was “G B” and the “Target(s)” value [1, 3] was “S. epidermidis and E. coli and P. aeruginosa and C. albicans and MRSA and S. pneumoniae and E. faecalis”. The “Organism, effect” value (MRSA) was “MRSA (C)”.
In the case of “PF-534 (KYFHLFYHNIIHYSKQHLSLKVDFKN; Peptide with targeting and/or antimicrobial activity)”, the “Organism, effect” value (E. coli) is reported as “E. coli (R)”, the “Organism, effect” value (E. faecalis) is reported as “E. faecalis (C)” and the “Organism, effect” value (S. pneumoniae) is reported as “S. pneumoniae (R)”. For the same substance, the “Organism, effect” value (S. epidermidis) was “S. epidermidis (C)” and the “Organism, effect” value (MRSA) was “MRSA (C)”.
